Data taken from patent US20240252668A1, “ANTIBODY DRUG CONJUGATES AND METHODS FOR MAKING THEREOF” (Novartis AG, priority 2021, published 2024).
Read-outs that look alike come from different tables or passages of the source. Starred links: 1 amine or outer side, 2 acyl side, 3 side chain; linkers in the order of their positions; H or OH if unused. Positions of bridges follow the written chain, without caps; N, C: chain ends. Non-standard residues stand in square brackets, D forms with d. Residues, ends and D or L forms follow the SMILES beside them. *: point of attachment. Leu(3R-OH,Nα-propionyl) = CCC(=O)N[C@H](C(=O)*)[C@H](O)C(C)C; X1 = CC(C)[C@@H](O[*:3])[C@H](N[*:1])C(=O)[*:2]; NMeT = CN[C@H](C(=O)O)[C@@H](C)O; dPhLac = O=C(O)[C@H](O)Cc1ccccc1; NMeA = CN[C@@H](C)C(=O)O; NMeDha = C=C(NC)C(=O)O

What was measured:
[1] = tested on: 92.1 uveal melanoma cell line (heterozygous GNAQ Q209L); assay: Cell proliferation assay (resazurin cell viability), 92.1 cell line; type: cell-based
Outline: (§1)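 Cells seeded the night before, then treated 96 h at 37 °C in RPMI/10% FCS (A375 in DMEM/10% FCS); compounds 260 nM to 0.036 nM in ⅓ dilution steps, one compound 10000 nM to 1.52 nM. Viability read by resazurin addition after 96 h.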

[2] = tested on: A375 skin melanoma cell line (homozygous BRAF V600E); assay: Cell proliferation assay (resazurin cell viability), A375 cell line; type: cell-based; details: Homo sapiens, A-375
Outline: as §1

[3] = Plasma incubation of compound (A1), human plasma, LC-MS/MS quantification; type: in vitro ADME; details: human plasma, 37° C.
Protocol: (§2) Plasma incubations and sample preparation: Compound (A1) was spiked at 5.00 μg/mL in PBS and pooled mixed gender mouse (CD-1), cynomolgus monkey and human plasma. Samples were incubated on a Thermomixer (Eppendorf) at 37° C. while shaking at 650 rpm. Aliquots of 50 μL (n=3) were drawn from each incubation tube following 0, 0.5, 1, 2, 4, 8 and 24 h of incubation. 50 μL of sample was quenched with 200 μL of acetonitrile, containing both generic internal standards, glybenclamide and warfarin, at 62.5 ng/mL. Samples were briefly vortexed and centrifuged for 20 min at 4000 rpm and 4° C. 200 μL of the supernatant was transferred into a clean 800 μL 96-well sample collection plate.
Quantification by LC-MS/MS: LC-MS/MS analysis was conducted with a Shimadzu Nexera UPLC coupled to AB Sciex QTRAP 6500 using the SRM acquisition mode (3 μL injected). Samples were analyzed using a ACE 3° C.18-PFP (3 μM, 2.1×50 mm column) at a column temperature of 65° C. The starting conditions were 97% H20 containing 0.1% formic acid and 3% CH3CN containing 0.1% formic acid. Quantification of compound (A1) and 5 was performed by MS-MRM (electrospray in positive mode, ion spray voltage: 5000 V, source temperature: 500° C., curtain gas: 25 psig, nebulizer gas: 60 psig, turbo ion spray gas: 40 psig, mass range: low, resolution Q1/Q3: unit, collision gas: medium, dwell time: 12 msec). Separate calibration curves were established with calibration standards of compounds (A1) and 5 at concentrations of 10.0, 5.00, 2.50, 1.00, 0.500, 0.100, 0.050 and 0.010 μg/mL respectively. Peak integration and quantification was conducted with the AB Sciex Analyst software (v.1.7) using the Analyst Classic algorithm. […]

[4] = Plasma incubation of compound (A1), mouse (CD-1) plasma; type: in vitro ADME
Protocol: as §2
Quantification by LC-MS/MS: LC-MS/MS analysis was conducted with a Shimadzu Nexera UPLC coupled to AB Sciex QTRAP 6500 using the SRM acquisition mode (3 μL injected). Samples were analyzed using a ACE 3° C.18-PFP (3 μM, 2.1×50 mm column) at a column temperature of 65° C. […] Quantification of compound (A1) and 5 was performed by MS-MRM (electrospray in positive mode, ion spray voltage: 5000 V, source temperature: 500° C., curtain gas: 25 psig, nebulizer gas: 60 psig, turbo ion spray gas: 40 psig, mass range: low, resolution Q1/Q3: unit, collision gas: medium, dwell time: 12 msec). […] Peak integration and quantification was conducted with the AB Sciex Analyst software (v.1.7) using the Analyst Classic algorithm.

MDCK-LE monolayers = assay: Cell-based transwell assay with MDCK-low efflux monolayers (passive permeability); type: in vitro ADME; details: MDCK-LE monolayers
Protocol: (§3) Cell-based transwell assays with MDCK-low efflux monolayers: Compounds (A1) and 2-15 were tested in MDCK cell sub-clones with low effluxt ransporter activity (MDCK-LE) in order to determine their passive permeability. The incubations were performed at a contract research organization as described previously.

[5] = as above; type: in vitro ADME; details: dog; MDCK-LE monolayers
Protocol: as §3

With `C=C1C(=O)N[C@@H](C)C(=O)N(C)[C@@H](C)C(=O)N[C@@H]([C@H](OC(=O)[C@@H](NC(=O)CC)[C@H](O)C(C)C)C(C)C)C(=O)N(C)[C@@H]([C@@H](C)OC)C(=O)O[C@H](C(C)C)[C@H](NC(C)=O)C(=O)O[C@H](Cc2ccccc2)C(=O)N1C` [Compound (A1), FR900359] (Ac-[X1][dPhLac][NMeDha]A[NMeA][X1](Leu(3R-OH,Nα-propionyl))[NMeT](Me); ester 1-C) the GI50 ([1]; 92.1 (GNAQ Q209L), 96 hours of treatment, read-out: GI50 by cell line, 92.1) was 0.6 nM, the GI50 ([1]; 92.1 cell line, average of Rep. 1 and 2, read-out: GI50 92.1 Average) was 0.6 nM and the GI50 ([1]; 92.1 cell line, replicate 1, read-out: GI50 92.1 Rep. 1) was 0.46 nM. For the same compound, the GI50 ([1]; 92.1 cell line, replicate 2, read-out: GI50 92.1 Rep. 2) was 0.69 nM, the GI50 ([2]; A375 (GNAQ/11 wild type), 96 hours of treatment, read-out: GI50 by cell line, A375) was greater than 260 nM and the GI50 ([2]; A375 cell line, average of Rep. 1 and 2, read-out: GI50 A375 Average) was greater than 260 nM. For the same compound, the GI50 ([2]; A375 cell line, replicate 1, read-out: GI50 A375 Rep. 1) was greater than 260 nM, the GI50 ([2]; A375 cell line, replicate 2, read-out: GI50 A375 Rep. 2) was greater than 260 nM and the “Concentration of (A1), Aliquot 1” value ([3]; 0 h) was 4620 ng/mL. For the same compound, the “Concentration of (A1), Aliquot 2” value ([3]; 0 h) was 4350 ng/mL, the “Concentration of (A1), Aliquot 3” value ([3]; 0 h) was 4750 ng/mL and the “Mean concentration of (A1)” value ([3]; 0 h) was 4570 ng/mL. For the same compound, the “Concentration of (A1), Aliquot 1” value ([3]; 0.5 h) was 5150 ng/mL, the “Concentration of (A1), Aliquot 2” value ([3]; 0.5 h) was 5100 ng/mL and the “Concentration of (A1), Aliquot 3” value ([3]; 0.5 h) was 5100 ng/mL. For the same compound, the “Mean concentration of (A1)” value ([3]; 0.5 h) was 5120 ng/mL, the “Concentration of (A1), Aliquot 1” value ([3]; 1 h) was 4980 ng/mL and the “Concentration of (A1), Aliquot 2” value ([3]; 1 h) was 4580 ng/mL. The “Concentration of (A1), Aliquot 3” value ([3]; 1 h) was 5020 ng/mL, the “Mean concentration of (A1)” value ([3]; 1 h) was 4860 ng/mL and the “Concentration of (A1), Aliquot 1” value ([3]; 2 h) was 4790 ng/mL. For the same compound, the “Concentration of (A1), Aliquot 2” value ([3]; 2 h) was 5130 ng/mL, the “Concentration of (A1), Aliquot 3” value ([3]; 2 h) was 4680 ng/mL and the “Mean concentration of (A1)” value ([3]; 2 h) was 4870 ng/mL. For the same compound, the “Concentration of (A1), Aliquot 1” value ([3]; 4 h) was 4140 ng/mL, the “Concentration of (A1), Aliquot 2” value ([3]; 4 h) was 4350 ng/mL and the “Concentration of (A1), Aliquot 3” value ([3]; 4 h) was 4350 ng/mL. The “Mean concentration of (A1)” value ([3]; 4 h) was 4280 ng/mL, the “Concentration of (A1), Aliquot 1” value ([3]; 8 h) was 3260 ng/mL and the “Concentration of (A1), Aliquot 2” value ([3]; 8 h) was 3660 ng/mL. The “Concentration of (A1), Aliquot 3” value ([3]; 8 h) was 3600 ng/mL, the “Mean concentration of (A1)” value ([3]; 8 h) was 3510 ng/mL and the “Concentration of (A1), Aliquot 1” value ([3]; 24 h) was 1350 ng/mL. The “Concentration of (A1), Aliquot 2” value ([3]; 24 h) was 1430 ng/mL, the “Concentration of (A1), Aliquot 3” value ([3]; 24 h) was 1290 ng/mL and the “Mean concentration of (A1)” value ([3]; 24 h) was 1360 ng/mL. For the same compound, the “plasma stability / metabolite formation compared with human plasma” value [4] was “Very similar results”, the “% Fraction absorbed” value (MDCK-LE monolayers) was 59.7% and the Papp A→B [5] was 4.06 ×10⁻⁶ cm/s. The recovery [5] was 65%.
